Molecules are shown by their SMILES.

Common to all, as to assay type: biochemical
Test [1] concerns the target T1, recombinant human baculovirus-expressed FGFR1 cytoplasmic domain (Homo sapiens, UniProt P11362).
T1 construct: recombinant human baculovirus-expressed FGFR1 cytoplasmic domain; host or cells: baculovirus expression system
The experiment in a line: FGFR1 kinase inhibition assay (ELISA-based, time-resolved fluorescence). As to conditions: 1 uM compound; 20 μM ATP. Put shortly: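 Prephosphorylated baculovirus FGFR1 cytoplasmic domain (15 ng/ml) phosphorylated plate-coated PLC-γ/GST with 20 μM ATP, 10 mM MnCl2, HEPES pH 7.4, 2% DMSO, 15 min at 37 °C. Compounds tested at 1 μM. Phosphotyrosine detected with europium-labelled antibody by time-resolved fluorescence.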
In general terms: In an ELISA, binding on a coated surface is turned into a signal by an enzyme label.

Test [2] addresses T2, recombinant human baculoviral VEGFR2 cyctoplasmic domain (Homo sapiens, UniProt P35968).
T2 construct: recombinant human baculoviral VEGFR2 cyctoplasmic domain; host or cells: baculovirus expression system
Kind of test: VEGFR2 kinase inhibition assay (ELISA-based, time-resolved fluorescence). As to conditions: 1 uM compound; 30 μM ATP.

Test [3] deals with T3, recombinant human baculovirus-expressed VEGFR1 cytoplasmic domain (Homo sapiens, UniProt P17948).
T3 construct: recombinant human baculovirus-expressed VEGFR1 cytoplasmic domain; host or cells: baculovirus expression system
T3 sequence (P17948 781-1338 limits assumed): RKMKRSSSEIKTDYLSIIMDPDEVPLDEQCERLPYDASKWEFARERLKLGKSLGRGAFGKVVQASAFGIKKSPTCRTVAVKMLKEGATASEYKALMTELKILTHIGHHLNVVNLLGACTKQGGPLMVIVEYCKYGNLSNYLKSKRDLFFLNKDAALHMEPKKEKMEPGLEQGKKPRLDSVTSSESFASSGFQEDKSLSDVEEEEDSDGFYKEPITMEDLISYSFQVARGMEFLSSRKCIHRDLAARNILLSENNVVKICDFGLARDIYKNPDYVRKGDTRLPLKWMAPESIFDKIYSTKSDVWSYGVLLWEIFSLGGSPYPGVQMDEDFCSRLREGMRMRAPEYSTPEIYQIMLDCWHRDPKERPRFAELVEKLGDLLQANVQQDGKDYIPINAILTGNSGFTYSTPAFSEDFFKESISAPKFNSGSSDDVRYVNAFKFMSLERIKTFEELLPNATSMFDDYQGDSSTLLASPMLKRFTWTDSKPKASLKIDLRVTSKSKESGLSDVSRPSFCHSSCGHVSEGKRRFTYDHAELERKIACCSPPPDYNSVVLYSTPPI
Kind of test: VEGFR1 kinase inhibition assay (ELISA-based, time-resolved fluorescence). As to conditions: 1 uM compound; 30 μM ATP. The method, boiled down: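 Prephosphorylated baculovirus-expressed VEGFR1 cytoplasmic domain (300 ng/ml) phosphorylates plate-bound PLC-γ/GST with 30 μM ATP, 10 mM MnCl2, pH 7.4, 15 min at 37 °C. Compounds tested at 1 μM. Phosphotyrosine detected with europium anti-phosphotyrosine antibody by time-resolved fluorescence.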

Another test addresses T4, baculoviral GST-MLK2KDLZ (Homo sapiens, UniProt Q02779).
T4 construct: 3 μg/ml of baculoviral GST-MLK2KDLZ; GST (N); host or cells: baculovirus expression system
The experiment in a line: Mixed Lineage Kinase-2 inhibition assay (Millipore Multiscreen plate, 32P). As to conditions: 1 uM compound; 100 μM ATP. The method, boiled down: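 Baculoviral GST-MLK2KDLZ (3 μg/ml) phosphorylating myelin basic protein (500 μg/ml) with 100 μM ATP plus [γ-32P]ATP in Hepes pH 7, MgCl2, 2% DMSO, 15 min at 37° C. TCA-precipitated protein counted by scintillation.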

T4 sequence (Q02779 98-440 limits assumed): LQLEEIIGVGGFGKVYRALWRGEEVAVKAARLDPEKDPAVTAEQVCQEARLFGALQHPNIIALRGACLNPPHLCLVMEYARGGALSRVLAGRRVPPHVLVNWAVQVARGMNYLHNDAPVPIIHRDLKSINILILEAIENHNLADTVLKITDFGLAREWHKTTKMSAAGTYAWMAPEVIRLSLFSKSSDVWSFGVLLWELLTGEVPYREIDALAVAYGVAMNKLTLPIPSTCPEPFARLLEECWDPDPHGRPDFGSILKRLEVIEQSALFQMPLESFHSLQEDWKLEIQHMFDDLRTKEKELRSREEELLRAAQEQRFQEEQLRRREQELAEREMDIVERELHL
T2 sequence (P35968 786-1356 limits assumed): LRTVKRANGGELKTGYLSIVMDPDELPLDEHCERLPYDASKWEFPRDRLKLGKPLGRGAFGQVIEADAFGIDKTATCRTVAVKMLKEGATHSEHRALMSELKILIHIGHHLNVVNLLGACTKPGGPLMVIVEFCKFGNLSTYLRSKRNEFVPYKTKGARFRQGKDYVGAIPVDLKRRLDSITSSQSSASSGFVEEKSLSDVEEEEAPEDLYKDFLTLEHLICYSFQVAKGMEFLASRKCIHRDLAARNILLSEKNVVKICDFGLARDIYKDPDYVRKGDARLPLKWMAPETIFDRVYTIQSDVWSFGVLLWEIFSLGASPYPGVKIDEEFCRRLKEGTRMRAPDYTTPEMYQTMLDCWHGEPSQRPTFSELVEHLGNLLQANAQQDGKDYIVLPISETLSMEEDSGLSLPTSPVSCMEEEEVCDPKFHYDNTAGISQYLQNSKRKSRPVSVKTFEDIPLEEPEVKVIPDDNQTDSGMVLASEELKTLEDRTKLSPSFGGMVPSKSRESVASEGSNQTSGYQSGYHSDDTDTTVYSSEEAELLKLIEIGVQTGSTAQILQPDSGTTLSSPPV
T1 sequence (P11362 398-822 limits assumed): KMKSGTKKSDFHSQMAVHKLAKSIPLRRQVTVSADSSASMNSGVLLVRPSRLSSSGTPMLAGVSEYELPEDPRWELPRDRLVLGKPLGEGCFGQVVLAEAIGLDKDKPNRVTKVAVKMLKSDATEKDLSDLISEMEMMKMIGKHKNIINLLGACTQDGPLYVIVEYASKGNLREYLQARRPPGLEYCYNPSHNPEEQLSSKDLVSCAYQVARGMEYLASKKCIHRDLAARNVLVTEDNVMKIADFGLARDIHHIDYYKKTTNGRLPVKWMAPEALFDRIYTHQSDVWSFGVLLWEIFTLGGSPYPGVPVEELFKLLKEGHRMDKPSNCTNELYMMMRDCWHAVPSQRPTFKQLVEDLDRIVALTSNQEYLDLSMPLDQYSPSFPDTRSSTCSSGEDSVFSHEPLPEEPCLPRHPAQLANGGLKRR

Regarding `O=C1NN=C(c2ccoc2)C1=Cc1cn(Cc2ccccc2)c2ccccc12` [Compound 68], the “FGFR1 % inhibition @ 1 uM” value in test [1] was found to be 27%. The “VEGFR-2 kinase % inhibition @ 1 uM” value in test [2] is recorded as 26%. For the same molecule, the “VEGFR-1 kinase % inhibition @ 1 uM” value in test [3] is 11%. The “MLK-2 Kinase % inhibition @ 1 uM” value on baculoviral GST-MLK2KDLZ was found to be 16%.

In the case of `O=C1NN=C(c2ccco2)C1=Cc1cn(Cc2ccccc2)c2ccccc12` [Compound 69], the “FGFR1 % inhibition @ 1 uM” value in test [1] is on record as 30%. Besides, in test [2], the “VEGFR-2 kinase % inhibition @ 1 uM” value is 5%. For the same molecule, the “VEGFR-1 kinase % inhibition @ 1 uM” value in test [3] was 5%. Further, the “MLK-2 Kinase % inhibition @ 1 uM” value at baculoviral GST-MLK2KDLZ was 4%.

With `O=C1NN=C(c2nccs2)C1=Cc1cn(Cc2ccccc2)c2ccccc12` [Compound 70], the “FGFR1 % inhibition @ 1 uM” value in test [1] stood at 21%. Moreover, in test [2], the “VEGFR-2 kinase % inhibition @ 1 uM” value worked out at 51%. Further, the “VEGFR-1 kinase % inhibition @ 1 uM” value in test [3] was found to be 1%. Also, the “MLK-2 Kinase % inhibition @ 1 uM” value on baculoviral GST-MLK2KDLZ was 5%.

Turning to `O=C1NN=C(c2ccco2)C1=Cc1cn(CCOCc2ccccc2)c2ccccc12` [Compound 71], in test [1], the “FGFR1 % inhibition @ 1 uM” value was determined as 26%. Further, the “VEGFR-2 kinase % inhibition @ 1 uM” value in test [2] is on record as −1%. In test [3], the “VEGFR-1 kinase % inhibition @ 1 uM” value was 12%. In addition, the “MLK-2 Kinase % inhibition @ 1 uM” value on baculoviral GST-MLK2KDLZ is 3%.

Turning to `O=C1NN=C(c2nccs2)C1=Cc1cn(CCOCc2ccccc2)c2ccccc12` [Compound 72], in test [1], the “FGFR1 % inhibition @ 1 uM” value is on record as 29%. Besides, the “VEGFR-2 kinase % inhibition @ 1 uM” value in test [2] is recorded as 3%. For the same molecule, the “VEGFR-1 kinase % inhibition @ 1 uM” value in test [3] turned out to be 12%. Besides, the “MLK-2 Kinase % inhibition @ 1 uM” value on baculoviral GST-MLK2KDLZ came out at 3%.

Turning to `CC(C)Cn1cc(C=C2C(=O)NN=C2c2nccs2)c2ccccc21` [Compound 73], the “FGFR1 % inhibition @ 1 uM” value in test [1] stood at 19%. Besides, the “VEGFR-2 kinase % inhibition @ 1 uM” value in test [2] is listed as 15%. Further, in test [3], the “VEGFR-1 kinase % inhibition @ 1 uM” value stood at 12%. Also, on baculoviral GST-MLK2KDLZ, the “MLK-2 Kinase % inhibition @ 1 uM” value is reported as 12%.

Turning to `O=C1NN=C(c2cccs2)C1=Cc1cn(Cc2ccccc2)c2ccccc12` [Compound 75], the “FGFR1 % inhibition @ 1 uM” value in test [1] came out at 26%. Further, in test [2], the “VEGFR-2 kinase % inhibition @ 1 uM” value is 32%. Besides, the “VEGFR-1 kinase % inhibition @ 1 uM” value in test [3] was determined as 5%. Also, on baculoviral GST-MLK2KDLZ, the “MLK-2 Kinase % inhibition @ 1 uM” value is on record as −5%.

The record behind these values is patent US6831075B2, “Heterocyclic substituted pyrazolones” (Cephalon, Inc., priority 1999, dated 2004).
